Measured values from patent US8710038B2, “Pyrazole kinase modulators and methods of use” (Exelixis, Inc., priority 2004, dated 2014).

Key:
EGFR = EGFR (Homo sapiens, UniProt P00533); assay: EGFR kinase inhibition assay; type: biochemical
Description: (§1) Kinase activity and compound inhibition are investigated using one or more of the three assay formats described below. The ATP concentrations for each assay are selected to be close to the Michaelis-Menten constant (KM) for each individual kinase. Dose-response experiments are performed at 10 different inhibitor concentrations in a 384-well plate format. The data are fitted to four-parameter equation (2) below; where Y is the observed signal, X is the inhibitor concentration, Min is the background signal in the absence of enzyme (0% enzyme activity), Max is the signal in the absence of inhibitor (100% enzyme activity), IC50 is the inhibitor concentration at 50% enzyme inhibition and H represents the empirical Hill's slope to measure the cooperativity. Typically H is close to unity. Y=Min+(Max−Min)/(1+(X/IC50)^H) Equation (2) ^33P Phosphoryl Transfer Assay: […]
(§2) Greiner 384-well white, clear bottom, high binding plates are coated with 2 μg/well of protein or peptide substrate in a 50 μL volume overnight at ambient temperature. The coating buffer typically contains 40 μg/mL substrate, 22.5 mM Na2CO3, 27.5 mM NaHCO3, 150 mM NaCl and 3 mM NaN3. The coating solution is aspirated and the plates are washed once with 50 μL of assay buffer and padded dry. Subsequently compounds and enzymes are mixed with γ^33P-ATP (3.3 μCi/nmol) in a total volume of 20 uL in suitable assay buffers. The mixture is incubated at ambient temperature for 1.5-2.5 hrs and terminated by aspiration using a Molecular Devices EMBLA 96-head plate washer. The plates are subsequently washed 6-12 times with PBST or TBS buffer. Scintillation fluid (50 μl/well) is then added, the plates are sealed and activity assessed by liquid scintillation spectrometry using a Perkin Elmer MicroBeta TriLux.
(§3) In the LCCA assays, kinase activity is measured as the percent ATP consumed following the kinase reaction using luciferase-luciferin-coupled chemiluminescence. Greiner 384-well white, clear bottom, medium-binding plates are used for LCCA. Briefly, the kinase reaction is initiated by mixing compounds, ATP and kinase in a 20 uL volume. The mixture is incubated at ambient temperature for 2-4 hrs. At the end of the kinase reaction, a 20 uL luciferase-luciferin mix is added and the chemiluminescent signal is read using a Wallac Victor^2 reader. The luciferase-luciferin mix consists of 50 mM HEPES, pH 7.8, 8.5 ug/mL oxalic acid (pH 7.8), 5 (or 50) mM DTT, 0.4% Triton X-100, 0.25 mg/mL coenzyme A, 63 uM AMP, 28 ug/mL luciferin and 40,000 units of light/mL luciferase. For the LCCA assays, total ATP consumption has been standardized to 25-45% and the IC50 values correlates well with those determined by radiometric assays.
(§4) AlphaScreen technology is a proximity assay which utilizes the increase in fluorescent signal occurring when donor and acceptor beads are close in proximity. Biotinylated poly(Glu,Tyr) 4:1 is used as the kinase substrate, in conjunction with streptavidin-coated donor beads and anti-phosphortyrosine antibody PY100-coated acceptor beads. Upon phosphorylation, the peptide substrate can bind to both donor and acceptor beads giving rise to an increase in fluorescence. Compounds, ATP, biotinylated poly(Glu, Tyr) and kinases are mixed in a volume of 20 uL for 1 hr at ambient temperature using Greiner 384-well white clear bottom medium binding plates. Following incubation a 10 uL solution containing […] AlphaScreen beads, 75 mM Hepes, pH 7.4, 300 mM NaCl, 120 mM EDTA, 0.3% BSA and 0.03% Tween-20 is added to each well. After 2-16 hr incubation of the beads, plates are read in a Perkin Elmer AlphaQuest reader. The IC50 values correlates well with those of radiometric assays.

c-Kit = c-Kit (Homo sapiens, UniProt P10721); assay: c-Kit biochemical assay (AlphaScreen)
Description: as §4
c-Kit biochemical activity was assessed using AlphaScreen™ (Perkin Elmer) technology, described above. Test compounds, ATP, biotinylated poly(Glu, Tyr) and c-Kit kinase were combined in a volume of 20 μL in a 384-well white, medium binding microtiter plate (Greiner). Reaction mixtures were incubated for 1 hr at ambient temperature. Reactions were quenched by addition of 10 uL of […] AlphaScreen bead suspension containing 75 mM Hepes, pH 7.4, 300 mM NaCl, 120 mM EDTA, 0.3% BSA and 0.03% Tween-20. After 16 hr incubation at ambient temperature plates were read using an AlphaQuest reader (Perkin Elmer).

EphB4 = molecular target: T1, EphB4 (Homo sapiens, UniProt P54760); assay: EphB4 kinase inhibition assay; type: biochemical
T1 sequence (P54760 16-987): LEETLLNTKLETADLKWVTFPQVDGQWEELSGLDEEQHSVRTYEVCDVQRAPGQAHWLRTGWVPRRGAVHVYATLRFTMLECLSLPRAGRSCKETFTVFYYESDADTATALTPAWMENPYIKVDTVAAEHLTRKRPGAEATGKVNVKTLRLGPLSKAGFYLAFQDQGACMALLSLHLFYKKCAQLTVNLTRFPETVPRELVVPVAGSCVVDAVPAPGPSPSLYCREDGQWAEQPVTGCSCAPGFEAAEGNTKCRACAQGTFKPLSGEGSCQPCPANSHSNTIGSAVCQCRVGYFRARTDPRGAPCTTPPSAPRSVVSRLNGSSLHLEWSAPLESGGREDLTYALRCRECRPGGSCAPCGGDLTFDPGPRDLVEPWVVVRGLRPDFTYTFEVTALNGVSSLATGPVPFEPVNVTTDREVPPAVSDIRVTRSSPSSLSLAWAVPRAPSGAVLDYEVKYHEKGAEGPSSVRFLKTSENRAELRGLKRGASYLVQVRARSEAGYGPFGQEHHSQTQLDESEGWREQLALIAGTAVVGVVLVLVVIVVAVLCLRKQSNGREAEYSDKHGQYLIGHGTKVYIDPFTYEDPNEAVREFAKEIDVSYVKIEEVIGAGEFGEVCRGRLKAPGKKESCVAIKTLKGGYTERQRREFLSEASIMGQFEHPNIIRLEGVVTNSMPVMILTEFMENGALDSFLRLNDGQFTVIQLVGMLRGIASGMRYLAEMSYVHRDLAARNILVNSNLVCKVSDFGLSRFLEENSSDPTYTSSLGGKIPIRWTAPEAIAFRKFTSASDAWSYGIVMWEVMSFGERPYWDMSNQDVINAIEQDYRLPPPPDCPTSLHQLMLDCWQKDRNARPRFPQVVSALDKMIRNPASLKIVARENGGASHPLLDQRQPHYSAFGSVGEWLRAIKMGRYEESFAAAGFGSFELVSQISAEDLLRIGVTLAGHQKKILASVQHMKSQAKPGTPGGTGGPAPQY
Description: as §1, §2, §3, §4

flt-3 = molecular target: T2, flt-3 (Homo sapiens, UniProt P36888); assay: flt-3 Luciferase-Coupled Chemiluminescent Kinase assay (LCCA); type: biochemical
T2 construct: baculovirus expressed human Flt-3 kinase domain R571-S993
T2 sequence (P36888 571-993): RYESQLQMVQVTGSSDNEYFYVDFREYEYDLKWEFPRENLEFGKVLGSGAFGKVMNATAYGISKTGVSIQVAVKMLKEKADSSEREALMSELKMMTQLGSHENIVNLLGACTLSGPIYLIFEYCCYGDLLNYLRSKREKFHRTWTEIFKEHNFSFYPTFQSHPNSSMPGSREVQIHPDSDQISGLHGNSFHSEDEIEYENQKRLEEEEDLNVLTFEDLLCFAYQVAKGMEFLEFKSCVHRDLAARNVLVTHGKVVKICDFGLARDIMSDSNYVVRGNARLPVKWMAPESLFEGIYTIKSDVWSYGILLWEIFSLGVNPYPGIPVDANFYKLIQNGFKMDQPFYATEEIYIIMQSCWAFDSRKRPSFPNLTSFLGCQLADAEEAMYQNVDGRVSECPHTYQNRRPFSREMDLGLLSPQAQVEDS
Description: as §3
Flt-3 biochemical activity was assessed using a Luciferase-Coupled Chemiluminescent Kinase assay (LCCA) format. Kinase activity was measured as the percent ATP remaining following the kinase reaction. Remaining ATP was detected by luciferase-luciferin-coupled chemiluminescence. Specifically, the reaction was initiated by mixing test compounds, 5 μM ATP, 3 μM poly-EY and 5 nM Flt-3 (baculovirus expressed human Flt-3 kinase domain R571-S993) in a 20 uL assay buffer (20 mM Tris-HCL pH7.5, 10 mM MgCl2, 0.01% Triton X-100, 1 mM DTT, 2 mM MnCl2). The mixture is incubated at ambient temperature for 3 hours after which 20 uL luciferase-luciferin mix is added and the chemiluminescent signal read using a Wallac Victor^2 reader. The luciferase-luciferin mix consists of 50 mM HEPES, pH 7.8, 8.5 ug/mL oxalic acid (pH 7.8), 5 (or 50) mM DTT, 0.4% Triton X-100, 0.25 mg/mL coenzyme A, 63 uM AMP, 28 ug/mL luciferin and 40,000 units of light/mL luciferase.

Chain of c-Kit (P10721 26-976): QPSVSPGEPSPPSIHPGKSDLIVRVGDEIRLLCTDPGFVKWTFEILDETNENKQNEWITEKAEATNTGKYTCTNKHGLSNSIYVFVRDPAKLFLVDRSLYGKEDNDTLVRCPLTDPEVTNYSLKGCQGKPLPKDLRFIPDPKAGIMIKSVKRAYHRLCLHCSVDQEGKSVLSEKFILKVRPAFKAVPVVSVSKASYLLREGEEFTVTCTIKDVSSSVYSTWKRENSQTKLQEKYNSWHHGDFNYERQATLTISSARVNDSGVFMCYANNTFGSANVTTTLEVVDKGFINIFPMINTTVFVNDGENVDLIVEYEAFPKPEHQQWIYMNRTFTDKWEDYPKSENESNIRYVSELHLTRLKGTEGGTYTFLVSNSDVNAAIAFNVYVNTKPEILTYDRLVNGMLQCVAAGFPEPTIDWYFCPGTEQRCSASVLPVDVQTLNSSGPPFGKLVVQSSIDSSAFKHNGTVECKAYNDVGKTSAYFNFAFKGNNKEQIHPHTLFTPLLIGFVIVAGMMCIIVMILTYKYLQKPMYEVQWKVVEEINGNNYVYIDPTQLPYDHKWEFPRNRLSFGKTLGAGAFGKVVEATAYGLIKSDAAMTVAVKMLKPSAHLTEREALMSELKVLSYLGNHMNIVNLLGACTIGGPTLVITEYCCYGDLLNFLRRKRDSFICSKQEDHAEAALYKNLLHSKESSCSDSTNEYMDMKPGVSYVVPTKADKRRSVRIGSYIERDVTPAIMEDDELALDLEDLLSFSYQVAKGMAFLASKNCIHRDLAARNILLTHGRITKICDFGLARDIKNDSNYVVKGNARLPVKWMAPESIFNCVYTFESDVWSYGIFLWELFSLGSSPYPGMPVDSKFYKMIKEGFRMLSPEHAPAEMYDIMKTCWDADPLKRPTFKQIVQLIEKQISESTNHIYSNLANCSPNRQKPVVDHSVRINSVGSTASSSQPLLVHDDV
Chain of EGFR (P00533 25-1210, species assumed): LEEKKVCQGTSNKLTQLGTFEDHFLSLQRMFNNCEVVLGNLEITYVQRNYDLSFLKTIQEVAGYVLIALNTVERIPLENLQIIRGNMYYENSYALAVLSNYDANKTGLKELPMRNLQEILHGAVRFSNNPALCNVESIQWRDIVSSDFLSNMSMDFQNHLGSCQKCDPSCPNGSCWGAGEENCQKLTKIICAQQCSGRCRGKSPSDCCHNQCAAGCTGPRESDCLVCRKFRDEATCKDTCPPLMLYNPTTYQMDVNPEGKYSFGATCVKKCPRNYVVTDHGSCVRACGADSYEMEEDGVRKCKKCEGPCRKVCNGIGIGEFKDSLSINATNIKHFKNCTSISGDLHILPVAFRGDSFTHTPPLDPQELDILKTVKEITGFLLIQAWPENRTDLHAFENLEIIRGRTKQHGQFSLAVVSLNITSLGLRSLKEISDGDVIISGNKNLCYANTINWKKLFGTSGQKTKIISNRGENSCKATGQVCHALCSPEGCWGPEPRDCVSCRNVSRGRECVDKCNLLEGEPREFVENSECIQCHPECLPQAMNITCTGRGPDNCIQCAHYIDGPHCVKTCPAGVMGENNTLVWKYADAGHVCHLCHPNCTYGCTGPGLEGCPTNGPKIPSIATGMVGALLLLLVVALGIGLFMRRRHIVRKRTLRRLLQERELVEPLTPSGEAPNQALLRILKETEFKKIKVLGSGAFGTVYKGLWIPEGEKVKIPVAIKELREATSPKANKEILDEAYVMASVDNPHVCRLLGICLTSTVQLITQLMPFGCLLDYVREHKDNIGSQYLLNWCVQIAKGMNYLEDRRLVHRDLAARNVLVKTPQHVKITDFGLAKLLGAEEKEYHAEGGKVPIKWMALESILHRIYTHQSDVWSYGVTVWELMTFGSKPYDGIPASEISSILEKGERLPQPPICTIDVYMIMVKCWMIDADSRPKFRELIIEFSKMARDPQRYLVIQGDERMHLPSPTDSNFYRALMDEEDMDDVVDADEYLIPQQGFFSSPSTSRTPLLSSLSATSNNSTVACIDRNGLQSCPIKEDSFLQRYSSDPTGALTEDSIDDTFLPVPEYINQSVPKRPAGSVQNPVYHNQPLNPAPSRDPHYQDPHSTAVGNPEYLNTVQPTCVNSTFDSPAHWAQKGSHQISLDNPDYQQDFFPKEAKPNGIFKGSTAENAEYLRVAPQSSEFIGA

SMILES	IC50 (EGFR) [µM]	IC50 (c-Kit) [nM]	IC50 (EphB4) [µM]	IC50 (flt-3) [nM]
CN1CCN(c2ccc3[nH]c(-c4cc(-c5ccc(NC(=O)Nc6ccc(F)c(C(F)(F)F)c6)cc5)[nH]n4)nc3c2)CC1 [Entry 8, N-[4-fluoro-3-(trifluoromethyl)phenyl]-N′-(4-{3-[5-(4-methylpiperazin-1-yl)-1H-benzimidazol-2-yl]-1H-pyrazol-5-yl}phenyl)urea]	> 5	< 50	> 5	< 50
CN1CCN(c2ccc3[nH]c(-c4cc(-c5ccc(NC(=O)Nc6ccc(F)c(F)c6)cc5)[nH]n4)nc3c2)CC1 [Entry 25, N-(3,4-difluorophenyl)-N′-(4-{3-[5-(4-methylpiperazin-1-yl)-1H-benzimidazol-2-yl]-1H-pyrazol-5-yl}phenyl)urea]	> 5	< 50	> 5	< 50
CC(=O)c1cccc(NC(=O)Nc2ccc(-c3cc(-c4nc5cc(N6CCN(C)CC6)ccc5[nH]4)n[nH]3)cc2)c1 [Entry 5, N-(3-acetylphenyl)-N′-(4-{3-[5-(4-methylpiperazin-1-yl)-1H-benzimidazol-2-yl]-1H-pyrazol-5-yl}phenyl)urea]	> 5	< 50	0.5 to 5	< 50
CN1CCN(c2ccc(-c3cc(-c4ccc(NC(=O)Nc5ccc6c(c5)OCCO6)cc4)n[nH]3)cc2)CC1 [Entry 42, N-(2,3-dihydro-1,4-benzodioxin-6-yl)-N′-(4-{5-[4-(4-methylpiperazin-1-yl)phenyl]-1H-pyrazol-3-yl}phenyl)urea]	> 5	50 to 500	> 5	< 50
CN1CCN(c2ccc3[nH]c(-c4cc(-c5ccc(NC(=O)Nc6ccc(Cl)c(C(F)(F)F)c6)cc5)[nH]n4)nc3c2)CC1 [Entry 14, N-[4-chloro-3-(trifluoromethyl)phenyl]-N′-(4-{3-[5-(4-methylpiperazin-1-yl)-1H-benzimidazol-2-yl]-1H-pyrazol-5-yl}phenyl)urea]	> 5	< 50	> 5	< 50
Oc1ccc(/C=C/c2cc(-c3nc4ccccc4[nH]3)n[nH]2)cc1 [Entry 47, 4-{(E)-2-[3-(1H-benzimidazol-2-yl)-1H-pyrazol-5-yl]ethenyl}phenol]	> 5	50 to 500	0.5 to 5	< 50
O=C(Nc1ccc(-c2cc(-c3nc4ccccc4[nH]3)n[nH]2)cc1)Nc1ccc(Cl)c(C(F)(F)F)c1 [Entry 30, N-{4-[3-(1H-benzimidazol-2-yl)-1H-pyrazol-5-yl]phenyl}-N′-[4-chloro-3-(trifluoromethyl)phenyl]urea]	> 5	< 50	> 5	< 50
CN1CCN(c2ccc3[nH]c(-c4cc(-c5ccc(NC(=O)Nc6ccc(F)cc6F)cc5)[nH]n4)nc3c2)CC1 [Entry 32, N-(2,4-difluorophenyl)-N′-(4-{3-[5-(4-methylpiperazin-1-yl)-1H-benzimidazol-2-yl]-1H-pyrazol-5-yl}phenyl)urea]	> 5	< 50	> 5	< 50
CN1CCN(c2ccc3[nH]c(-c4cc(-c5ccc(NC(=O)Nc6ccc(OC(F)(F)F)cc6)cc5)[nH]n4)nc3c2)CC1 [Entry 12, N-(4-{3-[5-(4-methylpiperazin-1-yl)-1H-benzimidazol-2-yl]-1H-pyrazol-5-yl}phenyl)-N′-{4-[(trifluoromethyl)oxy]phenyl} urea]	> 5	< 50	> 5	< 50
CN1CCN(c2ccc3[nH]c(-c4cc(-c5ccc(NC(=O)Nc6ccc(Cl)cc6)cc5)[nH]n4)nc3c2)CC1 [Entry 18, N-(4-chlorophenyl)-N′-(4-{3-[5-(4-methylpiperazin-1-yl)-1H-benzimidazol-2-yl]-1H-pyrazol-5-yl}phenyl)urea]	> 5	< 50	> 5	< 50
Oc1ccc(/C=C/c2cc(-c3cc4ccccc4s3)n[nH]2)cc1 [Entry 49, 4-{(E)-2-[3-(1-benzothien-2-yl)-1H-pyrazol-5-yl]ethenyl}phenol]	> 5	50 to 500	> 5	50 to 500
